Results on 12 molecules are retold here after patent publication US20250049970A1, “DLL3 TARGETING PEPTIDES AND CONSTRUCTS THEREOF” (MARIANA ONCOLOGY INC., priority 2023, published 2025).

Where two headings read alike, the source gives them in different places. *1 amine or outer side, *2 acyl side, *3 side chain or, on linkers, in order; H or OH if unused. Where a SMILES comes first, the peptide text is derived from it. Bridges are numbered along the chain shown (N, C = ends). [ ]: non-standard residue; d: D form. The star is where a group is joined. X9 = CSCC[C@H](NC(=O)c1ccc(CNC(=O)CN2CCN(CC(=O)O)CCN(CC(=O)O)CCN(CC(=O)O)CC2)cc1)C(=O)N[C@H](C(=O)N[C@@H](CCCCN*)C(=O)O)C(C)C; Ala(piperidin-4-yl) = O=C([C@H](CC1CCN([*:3])CC1)N[*:1])[*:2]; DOTA = O=C(O)CN1CCN(CC(=O)O)CCN(CC(=O)*)CCN(CC(=O)O)CC1; Me3N+(CH2)2O(CH2)2O(CH2)2CO = C[N+](C)(C)CCOCCOCCC(=O)*; Trp(1-Me) = Cn1cc(C[C@H](N)C(=O)O)c2ccccc21; NMeW = CN[C@@H](Cc1c[nH]c2ccccc12)C(=O)O; 2Nal = N[C@@H](Cc1ccc2ccccc2c1)C(=O)O; NMetBuAla = CN[C@@H](CC(C)(C)C)C(=O)O; mXylylene = c1cc(C[*:1])cc(C[*:2])c1; Chg = N[C@H](C(=O)O)C1CCCCC1; Nle = CCCC[C@H](N)C(=O)O; CH2 = C([*:1])[*:2]; Sar = CNCC(=O)O Where only a bound is given, the exact number is not on record here.

The experiment addresses T1, DLL3 (Homo sapiens, UniProt Q9NYJ7).
T1 sequence (Q9NYJ7 27-618): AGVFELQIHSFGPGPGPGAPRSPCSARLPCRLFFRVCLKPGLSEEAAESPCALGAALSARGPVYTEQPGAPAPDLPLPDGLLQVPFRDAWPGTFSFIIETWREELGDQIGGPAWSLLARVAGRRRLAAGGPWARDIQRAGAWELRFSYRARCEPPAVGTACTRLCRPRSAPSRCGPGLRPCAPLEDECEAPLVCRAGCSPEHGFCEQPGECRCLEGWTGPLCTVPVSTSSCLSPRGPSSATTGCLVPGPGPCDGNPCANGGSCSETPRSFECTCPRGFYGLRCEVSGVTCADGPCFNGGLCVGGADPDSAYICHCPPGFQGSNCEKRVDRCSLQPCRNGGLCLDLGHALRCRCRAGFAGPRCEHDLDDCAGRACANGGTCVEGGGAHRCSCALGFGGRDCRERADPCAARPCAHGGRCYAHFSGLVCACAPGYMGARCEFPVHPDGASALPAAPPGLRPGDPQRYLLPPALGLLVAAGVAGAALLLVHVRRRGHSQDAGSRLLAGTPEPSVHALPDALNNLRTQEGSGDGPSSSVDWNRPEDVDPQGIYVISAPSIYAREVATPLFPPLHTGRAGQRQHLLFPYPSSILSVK
Kind of experiment: SPR KD, biotinylated human DLL3 on streptavidin chip (Table 8). To be noted: biotinylated human DLL3 on streptavidin sensor chip, 25° C., 1:1 binding model. Further details: biotin (biotinylated). An excerpt:
Biotinylated target ligand human DLL3 was immobilized on a streptavidin sensor chip. A reference surface was set up for nonspecific binding and refractive index changes. […] Sensorgram curves were fitted with 1:1 binding model, and affinity and kinetic parameters were obtained using Biacore Insight evaluation 4.0. software.

The term Kd denotes the constant that tells how readily two partners part at equilibrium. `CC[C@H](C)[C@H](NC(=O)[C@@H](NC(=O)[C@H](Cc1c[nH]c2ccccc12)NC(=O)[C@H](CCSC)NC(C)=O)[C@@H](C)O)C(=O)N[C@H]1CSSC[C@@H](C(=O)N[C@@H](Cc2c[nH]c3ccccc23)C(=O)N2CCC[C@H]2C(N)=O)NC(=O)[C@H](CC(=O)O)NC(=O)[C@H](Cc2cnc[nH]2)NC(=O)[C@H](Cc2cn(C)c3ccccc23)NC(=O)[C@H](CC(N)=O)NC(=O)[C@H](CC(N)=O)NC1=O` [compound 42, Ac-M-W-T-I-C(3)-N-N-(1Me-W)-H-D-C(3)-W-P-CONH2] (Ac-MWTICNN[Trp(1-Me)]HDCWP-NH2; disulfide 5-11): the Kd (read-out: SPR KD) was 10 to 100 nM.
Same read-out and setting: the same measure for `CSCC[C@H](NC(=O)c1ccc(CNC(=O)CN2CCN(CC(=O)O)CCN(CC(=O)O)CCN(CC(=O)O)CC2)cc1)C(=O)N[C@H](C(=O)N[C@@H](CCCCNC(=O)CC[C@@H]1NC(=O)[C@H](Cc2ccc3ccccc3c2)NC(=O)[C@H](CC(N)=O)NC(=O)[C@H](CC2CCNCC2)NC(=O)[C@@H](NC(=O)[C@@H](NC(=O)[C@@H](NC(=O)[C@H](Cc2c[nH]c3ccccc23)NC(C)=O)[C@@H](C)O)C2CCCCC2)CSSC[C@@H](C(=O)N[C@@H](Cc2c[nH]c3ccccc23)C(=O)N2CCC[C@H]2C(N)=O)NC(=O)[C@H](CC(=O)O)NC1=O)C(=O)O)C(C)C` [compound 381, Ac-W-T-(Chg)-C(3)-[3-(4-piperidinyl)-Ala]-N-(2Nal)-[Glu(gLys(OH)-Val-Met-AmBz-DOTA)]-D-C(3)-W-P-CONH2] (Ac-WT[Chg]C[Ala(piperidin-4-yl)]N[2Nal]E(X9)DCWP-NH2; disulfide 4-10): less than 1 nM.
The molecule `CC[C@H](C)[C@H](NC(=O)[C@@H](NC(=O)[C@H](Cc1c[nH]c2ccccc12)NC(C)=O)[C@@H](C)O)C(=O)N[C@H]1CSSC[C@@H](C(=O)N[C@@H](Cc2c[nH]c3ccccc23)C(=O)N2CCC[C@H]2C(=O)N[C@H](CCCCNC(=O)CN2CCN(CC(=O)O)CCN(CC(=O)O)CCN(CC(=O)O)CC2)C(N)=O)NC(=O)[C@H](CC(=O)O)NC(=O)[C@H](CCCCNC(=O)CN2CCN(CC(=O)O)CCN(CC(=O)O)CCN(CC(=O)O)CC2)NC(=O)[C@H](Cc2ccc3ccccc3c2)NC(=O)[C@H](CC(N)=O)NC(=O)[C@H](CC(N)=O)NC1=O` [compound 253, Ac-W-T-I-C(3)-N-N-(2Nal)-Lys(DOTA)-D-C(3)-W-P-[D-Lys(DOTA)]-NH2] (Ac-WTICNN[2Nal]K(DOTA)DCWP[dK](DOTA)-NH2; disulfide 4-10) registered a Kd (SPR KD) of less than 1 nM.
Consider `CC[C@H](C)[C@H](NC(=O)[C@@H](NC(=O)[C@H](Cc1c[nH]c2ccccc12)NC(=O)[C@@H](C)NC(C)=O)[C@@H](C)O)C(=O)N[C@H]1CSSC[C@@H](C(=O)N[C@@H](Cc2c[nH]c3ccccc23)C(=O)N2CCC[C@H]2C(N)=O)NC(=O)[C@H](CC(=O)O)NC(=O)[C@H](Cc2cnc[nH]2)NC(=O)[C@H](Cc2c[nH]c3ccccc23)NC(=O)[C@H](CC(N)=O)NC(=O)[C@H](CC(N)=O)NC1=O` [compound 2, Ac-(D-Ala)-W-T-I-C(3)-N-N-W-H-D-C(3)-W-P-CONH2] (Ac-[dA]WTICNNWHDCWP-NH2; disulfide 5-11), for which the dissociation constant (Kd) (read-out: SPR KD) lay within 1 to 10 nM.
Turning to `CC(=O)N[C@@H](Cc1c[nH]c2ccccc12)C(=O)N[C@H](C(=O)N[C@H](C(=O)N[C@H]1CSCc2cccc(c2)CSC[C@@H](C(=O)N[C@@H](Cc2c[nH]c3ccccc23)C(=O)N2CCC[C@H]2C(N)=O)NC(=O)[C@H](CC(=O)O)NC(=O)[C@H](CCCCNC(=O)CN2CCN(CC(=O)O)CCN(CC(=O)O)CCN(CC(=O)O)CC2)NC(=O)[C@H](Cc2ccc3ccccc3c2)NC(=O)[C@H](CC(N)=O)NC(=O)[C@H](CC2CCNCC2)NC1=O)C1CCCCC1)[C@@H](C)O` [compound 402, Ac-W-T-(Chg)-C(mDBX)-[3-(4-piperidinyl)-Ala]-N-(2Nal)-Lys(DOTA)-D-C(3)-W-P-CONH2] (Ac-WT[Chg]C[Ala(piperidin-4-yl)]N[2Nal]K(DOTA)DCWP-NH2; linker 4-10 via mXylylene), the equilibrium dissociation constant (Kd) (read-out: SPR KD) lay in the range of 100 to 300 nM.
In the case of `CCCC[C@H](NC(C)=O)C(=O)N[C@@H](Cc1c[nH]c2ccccc12)C(=O)N[C@H](C(=O)N[C@H](C(=O)N[C@H]1CSSC[C@@H](C(=O)N[C@@H](Cc2c[nH]c3ccccc23)C(=O)N2CCC[C@H]2C(N)=O)NC(=O)[C@H](CC(=O)O)NC(=O)[C@H](Cc2cnc[nH]2)NC(=O)[C@H](Cc2c[nH]c3ccccc23)NC(=O)[C@H](CC(N)=O)NC(=O)[C@H](CC(N)=O)NC1=O)[C@@H](C)CC)[C@@H](C)O` [compound 441, Ac-(L-Nle)-W-T-I-C(3)-N-N-W-H-D-C(3)-W-P-CONH2] (Ac-[Nle]WTICNNWHDCWP-NH2; disulfide 5-11), where the note is “read-out: SPR KD”, the dissociation constant Kd fell in the range of 10 to 100 nM.
As to `CC[C@@H](C)[C@H](NC(=O)[C@@H](NC(=O)[C@H](Cc1c[nH]c2ccccc12)NC(C)=O)[C@@H](C)O)C(=O)N[C@H]1CSSC[C@@H](C(=O)N[C@@H](Cc2c[nH]c3ccccc23)C(=O)N2CCC[C@H]2C(N)=O)NC(=O)[C@H](CC(=O)O)NC(=O)[C@H](CCCCNC(=O)CN2CCN(CC(=O)O)CCN(CC(=O)O)CCN(CC(=O)O)CC2)NC(=O)[C@H](Cc2ccc3ccccc3c2)NC(=O)[C@H](CC(N)=O)NC(=O)C(CN2CCOCC2)NC1=O` (single isomer, unassigned) [compound 312, Ac-W-T-(Allo-Ile)-C(3)-[3-(1-morpholinyl)-Ala]-N-(2Nal)-Lys(DOTA)-D-C(3)-W-P-CONH2], where the note is “read-out: SPR KD”, the dissociation constant Kd was less than 1 nM.
`CC(=O)N[C@@H](Cc1c[nH]c2ccccc12)C(=O)N[C@H](C(=O)N[C@H](C(=O)N[C@H]1CSSC[C@@H](C(=O)N[C@@H](Cc2c[nH]c3ccccc23)C(=O)N2CCC[C@H]2C(N)=O)NC(=O)[C@H](CC(=O)O)NC(=O)[C@H](CCCCNC(=O)CN2CCN(CC(=O)O)CCN(CC(=O)O)CCN(CC(=O)O)CC2)NC(=O)[C@H](Cc2ccc3ccccc3c2)NC(=O)[C@H](CC(N)=O)NC(=O)C(CN2CCOCC2)NC1=O)C(C)(C)C)[C@@H](C)O` (stereo partly drawn) [compound 309, Ac-W-T-(Tbg)-C(3)-[3-(1-morpholinyl)-Ala]-N-(2Nal)-Lys(DOTA)-D-C(3)-W-P-CONH2]: the Kd (read-out: SPR KD) was less than 1 nM.
On the same count and under the same terms, the same measure for `CC[C@H](C)[C@H](NC(=O)[C@@H](NC(=O)[C@H](Cc1c[nH]c2ccccc12)NC(C)=O)[C@@H](C)O)C(=O)N[C@H]1CSSC[C@@H](C(=O)N[C@@H](Cc2c[nH]c3ccccc23)C(=O)N(C)CC(N)=O)NC(=O)[C@H](CC(=O)O)NC(=O)[C@H](Cc2cnc[nH]2)NC(=O)[C@H](Cc2c[nH]c3ccccc23)NC(=O)[C@H](CC(N)=O)NC(=O)[C@H](CC(N)=O)NC1=O` [compound 334, Ac-W-T-I-C(3)-N-N-W-H-D-C(3)-W-(Sar)-CONH2] (Ac-WTICNNWHDCW[Sar]-NH2; disulfide 4-10): 10 to 100 nM.
As for `CC[C@H](C)[C@H](NC(=O)[C@@H](NC(=O)[C@H](Cc1c[nH]c2ccccc12)NC(=O)[C@H](CCSC)NC(C)=O)[C@@H](C)O)C(=O)N[C@H]1CSSC[C@@H](C(=O)N[C@@H](Cc2c[nH]c3ccccc23)C(=O)N2CCC[C@H]2C(N)=O)NC(=O)[C@H](C)NC(=O)[C@H](Cc2cnc[nH]2)NC(=O)[C@H](Cc2c[nH]c3ccccc23)NC(=O)[C@H](CC(N)=O)NC(=O)[C@H](CC(N)=O)NC1=O` [compound 37, Ac-M-W-T-I-C(3)-N-N-W-H-(L-Ala)-C(3)-W-P-CONH2] (Ac-MWTICNNWHACWP-NH2; disulfide 5-11), the dissociation constant Kd (read-out: SPR KD) lay within 10 to 100 nM.
Still for that read-out and setting: the result for `CC[C@H](C)[C@H](NC(=O)[C@@H](NC(=O)[C@H](Cc1c[nH]c2ccccc12)NC(C)=O)[C@@H](C)O)C(=O)N[C@H]1CSSC[C@@H](C(=O)N(C)[C@@H](Cc2c[nH]c3ccccc23)C(=O)N2CCC[C@H]2C(=O)O)NC(=O)[C@H](CC(=O)O)NC(=O)[C@H](Cc2c[nH]cn2)NC(=O)[C@H](Cc2c[nH]c3ccccc23)NC(=O)[C@H](CC(N)=O)NC(=O)[C@H](CC(N)=O)NC1=O` [compound 389, Ac-W-T-I-C(3)-N-N-W-H-D-C(3)-(NmeW)-P-CONH2] (Ac-WTICNNWHDC[NMeW]P-OH; disulfide 4-10) reads 100 to 300 nM; that for `CC(=O)N[C@@H](Cc1c[nH]c2ccccc12)C(=O)N[C@H](C(=O)N(C)[C@@H](CC(C)(C)C)C(=O)N[C@H]1CSCSC[C@@H](C(=O)N[C@@H](Cc2c[nH]c3ccccc23)C(=O)N2CCC[C@H]2C(N)=O)NC(=O)[C@H](CC(=O)O)NC(=O)[C@H](CCCCNC(=O)CN2CCN(CC(=O)O)CCN(CC(=O)O)CCN(CC(=O)O)CC2)NC(=O)[C@H](Cc2ccc3ccccc3c2)NC(=O)[C@H](CC(N)=O)NC(=O)[C@H](CC2CCN(C(=O)CCOCCOCC[N+](C)(C)C)CC2)NC1=O)[C@@H](C)O` [compound 448] (Ac-WT[NMetBuAla]C[Ala(piperidin-4-yl)](Me3N+(CH2)2O(CH2)2O(CH2)2CO)N[2Nal]K(DOTA)DCWP-NH2; linker 4-10 via CH2), less than 1 nM.
